Here are results for two molecules from US20050095606A1, “Partially double-stranded nucleic acids, methods of making, and use thereof” (priority 2001, published 2005).

Assay type in all cases: cell-based
What all share (conditions): 6 hours

For test [1], the system named is C-myc. In words: Flow-Thru Chip gene expression analysis after multiplex RT-PCR, MCF-7 cells. The source says:
(§1) MCF-7 cells are estrogen responsive breast adenocarcinoma cells that have been used previously as a model system for evaluation of breast cancer drugs. Initial studies have examined the effect of an anti-estrogen, tamoxifen, on the estradiol response of MCF-7 cells. Estradiol stimulates cell proliferation through the G1 phase in synchronized cell growth studies. Tamoxifen treatment of cells inhibits the induction of several genes that occur upon estradiol treatment by blocking estrogen receptor cofactors required for transcription. The Flow-Thru Chip™has been used as an analysis platform for a set of genes reported in the literature as differentially regulated in the MCF-7 system under estradiol and tamoxifen treatment. TAQMAN® PCR was performed to measure the changes in expression levels for each of the monitored genes across the treatments.
(§2) The experimental protocols for estradiol and tamoxifen treatment have been described in detail elsewhere (Wosikowski et al., Int. J. Cancer 53:290-297 (1993)). In this study MCF-7 (ATTC, Manassas, Va.) cells were maintained in MEM alpha medium supplemented with 10% heat-inactivated fetal bovine serum, Penicillin-Streptomycin and 10 μg/ml bovine insulin (complete medium) (Life Technologies, Gaithersburg, Md.). […] The purity and integrity of the total RNA was assessed by the 260/280 absorbance and the 28s/18s RNA ratios.
(§3) Analysis of genes under test by the Flow-Thru Chip™ required amplification from the total RNA. […] The appropriate number of cycles for each grouping of target nucleic acids was determined empirically to assure that all targets in the group were in the linear dynamic range of the chip and had not reached primer limitation in the PCR amplification. […]
(§4) The ability to multiplex target nucleic acids under study was confirmed by TAQMAN®, analysis of the singleplex and multiplex amplifications. […] Changes in expression level between samples were determined by comparing the brightness of gene-spots measured for each target nucleic acid relative to a reference target nucleic acid, β-actin. […]

In test [2] the test system is C-myc. Put plainly: TAQMAN PCR gene expression analysis, MCF-7 cells.
Text: as §1, with “The Flow-Thru Chip™has been used as an analysis platform for a set of genes reported in the literature as differentially regulated in the MCF-7 system under estradiol and tamoxifen treatment.” left out
The experimental protocols for estradiol and tamoxifen treatment have been described in detail elsewhere (Wosikowski et al., Int. J. Cancer 53:290-297 (1993)). […] The purity and integrity of the total RNA was assessed by the 260/280 absorbance and the 28s/18s RNA ratios.
as §4

For test [3], the system named is 12 target nucleic acids in MCF-7 cells. In words: Change in expression level of 12 target nucleic acids across cell treatments (Flow-Thru Chip and TAQMAN).
Text: as §1, §2, §3, §4
Background: Quantitative PCR measures a nucleic acid by following its amplification.

Consider `C[C@]12CC[C@@H]3c4ccc(O)cc4CC[C@H]3[C@@H]1CC[C@@H]2O` [estradiol, 17-beta-estradiol], for which the C-myc fold up-regulation with C-myc [1] (10 nM 17-beta-estradiol, relative to vehicle control (=1.0), reference β-actin, Flow-Thru Chip) was found to be 23±4 fold; with C-myc [2] (10 nM 17-beta-estradiol, relative to vehicle control (=1.0), reference β-actin, TAQMAN), 27±6 fold. For the same molecule, the “effect on expression of the target nucleic acids” value in test [3] (10 nM 17-beta-estradiol) was “induces expression”.
On to `CC/C(=C(\c1ccccc1)c1ccc(OCCN(C)C)cc1)c1ccccc1` [tamoxifen], for which, in the test on C-myc [1] (1 μM tamoxifen alone, method not stated), the “influence on C-myc expression” value was “no influence”. In addition, the C-myc fold increase result in the test with C-myc [1] (1 μM tamoxifen in conjunction with 10 nM 17-beta-estradiol, Flow-Thru Chip (same by both methods)) is given as “roughly 8 fold”; in the test with C-myc [2] (1 μM tamoxifen in conjunction with 10 nM 17-beta-estradiol, TAQMAN (same by both methods)), “roughly 8 fold”. Also, in test [3] (1 μM tamoxifen added to 10 nM 17-beta-estradiol), the “effect on estradiol induction of the set of target nucleic acids” value is recorded as “suppresses the induction”. The “influence on expression of any of the target nucleic acids” value in test [3] (1 μM tamoxifen alone) is listed as “little influence”.
